From patent publication US11377442B2, “Small molecule agonists and antagonists of NR2F6 activity” (ZANDER THERAPEUTICS, INC., priority 2016, dated 2022)
Like-named read-outs stand apart in the source and are kept apart here.

What was measured:
Type in all cases: cell-based
Renilla = Renilla signal in NR2F6 agonist screening, cmpd/DMSO; details: Renilla, F4
HEK293 pGL4 = test: Firefly_pGL signal, cmpd/DMSO (pGL4 control cells); details: Homo sapiens
NR2F6 = target: T1, NR2F6 (Homo sapiens, UniProt P10588); test: NR2F6 agonist screening, Firefly signal cmpd/DMSO
T1 construct: expressed in transfected cells; also transient transfection
T1 sequence (P10588 1-404): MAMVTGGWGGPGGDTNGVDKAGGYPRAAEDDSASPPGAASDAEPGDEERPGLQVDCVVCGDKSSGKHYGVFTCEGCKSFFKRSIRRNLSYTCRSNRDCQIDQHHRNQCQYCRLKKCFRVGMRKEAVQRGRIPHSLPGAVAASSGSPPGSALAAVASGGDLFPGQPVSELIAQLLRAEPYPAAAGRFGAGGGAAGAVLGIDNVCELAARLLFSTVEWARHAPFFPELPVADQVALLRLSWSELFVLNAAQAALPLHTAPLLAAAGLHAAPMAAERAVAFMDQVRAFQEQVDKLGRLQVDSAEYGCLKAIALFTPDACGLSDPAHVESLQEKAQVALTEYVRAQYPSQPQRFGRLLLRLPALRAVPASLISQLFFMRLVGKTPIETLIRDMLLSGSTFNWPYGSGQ

NR2F6 LBD = target: T2, NR2F6 LBD (Homo sapiens, UniProt P10588); test: NR2F6 LBD transient transfection; details: LBD
T2 construct: expressed in transfected cells
T2 sequence (P10588 165-393 limits assumed): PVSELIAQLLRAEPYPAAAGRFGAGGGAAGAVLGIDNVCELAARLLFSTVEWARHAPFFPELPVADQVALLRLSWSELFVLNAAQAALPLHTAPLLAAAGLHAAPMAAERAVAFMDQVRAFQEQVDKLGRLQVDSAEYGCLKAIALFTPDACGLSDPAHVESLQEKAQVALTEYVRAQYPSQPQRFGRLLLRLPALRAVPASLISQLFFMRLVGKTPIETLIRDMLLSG
Procedure, shortened: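 LBD-transfected cells treated at 40, 10, 2 and 0.5 μM (4 replicates); cytotoxicity measured in parallel, normalized to DMSO (0%) and zero signal (100%). Higher concentrations excluded where signal loss reflected toxicity.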

[1] = read-out: Renilla, F4, cmpd/DMSO (mean)
[2] = 1% FBS, read-out: Renilla, F4, 1% FBS, cmpd/DMSO (mean)
[3] = 10% FBS, read-out: Renilla, F4, 10% FBS, cmpd/DMSO (mean)
[4] = HEK293, 0.5 uM, pGL4, read-out: Firefly pGL4, cmpd/DMSO (mean)
[5] = HEK293, 2 uM, pGL4, read-out: Firefly pGL4, cmpd/DMSO (mean)
[6] = HEK293, 10 uM, pGL4, read-out: Firefly pGL4, cmpd/DMSO (mean)
[7] = HEK293, 40 uM, pGL4, read-out: Firefly pGL4, cmpd/DMSO (mean)
[8] = HEK293, pGL4, 1% FBS, 0.5 uM, read-out: Firefly, pGL4, 1% FBS, cmpd/DMSO (mean)
[9] = HEK293, pGL4, 1% FBS, 2 uM, read-out: Firefly, pGL4, 1% FBS, cmpd/DMSO (mean)
[10] = HEK293, pGL4, 1% FBS, 10 uM, read-out: Firefly, pGL4, 1% FBS, cmpd/DMSO (mean)
[11] = HEK293, pGL4, 1% FBS, 40 uM, read-out: Firefly, pGL4, 1% FBS, cmpd/DMSO (mean)
[12] = HEK293, pGL4, 10% FBS, 0.5 uM, read-out: Firefly, pGL4, 10% FBS, cmpd/DMSO (mean)
[13] = HEK293, pGL4, 10% FBS, 2 uM, read-out: Firefly, pGL4, 10% FBS, cmpd/DMSO (mean)
[14] = HEK293, pGL4, 10% FBS, 10 uM, read-out: Firefly, pGL4, 10% FBS, cmpd/DMSO (mean)
[15] = HEK293, pGL4, 10% FBS, 40 uM, read-out: Firefly, pGL4, 10% FBS, cmpd/DMSO (mean)

CCC(C)N[C@H]1CS(=O)(=O)C[C@@H]1S(=O)(=O)c1ccc(Cl)cc1 (stereo partly shown) [Compound D121]
fold induction at 0.5 µM (Renilla; [1]): 1.2
fold induction at 2 µM (Renilla; [1]): 1.1
fold induction at 10 µM (Renilla; [1]): 1.5
fold induction at 40 µM (Renilla; [1]): 1.7
fold induction at 0.5 µM (Renilla; [2]): 1.1
fold induction at 2 µM (Renilla; [2]): 1.4
fold induction at 10 µM (Renilla; [2]): 1.7
fold induction at 40 µM (Renilla; [2]): 1.3
fold induction at 0.5 µM (Renilla; [3]): 1
fold induction at 2 µM (Renilla; [3]): 1.1
fold induction at 10 µM (Renilla; [3]): 1.4
fold induction at 40 µM (Renilla; [3]): 2.6
fold induction at 0.5 µM (HEK293 pGL4; [4]): 1.4
fold induction at 2 µM (HEK293 pGL4; [5]): 1.6
fold induction at 10 µM (HEK293 pGL4; [6]): 3.9
fold induction at 40 µM (HEK293 pGL4; [7]): 0.7
fold induction at 0.5 µM (HEK293 pGL4; [8]): 1.1
fold induction at 2 µM (HEK293 pGL4; [9]): 1.1
fold induction at 10 µM (HEK293 pGL4; [10]): 3.2
fold induction at 40 µM (HEK293 pGL4; [11]): 0.8
fold induction at 0.5 µM (HEK293 pGL4; [12]): 1.1
fold induction at 2 µM (HEK293 pGL4; [13]): 1.4
fold induction at 10 µM (HEK293 pGL4; [14]): 2.4
fold induction at 40 µM (HEK293 pGL4; [15]): 1.2
Firefly F4, cmpd/DMSO (mean) (NR2F6; 0.5 uM): 0.9
Firefly F4, cmpd/DMSO (mean) (NR2F6; 2 uM): 1.9
Firefly F4, cmpd/DMSO (mean) (NR2F6; 10 uM): 4.9
Firefly F4, cmpd/DMSO (mean) (NR2F6; 40 uM): 1.9
F4, Firefly/Renilla for S/B(F4) > 3 (NR2F6; 1% FBS, 10 uM): 2.3
Firefly, F4/pGL4 for S/B(F4) > 3 (NR2F6; 1% FBS, 10 uM): 1.2
F4, Firefly/Renilla for S/B(F4) > 3 (NR2F6; 10% FBS, 10 uM): 2.4
Firefly, F4/pGL4 for S/B(F4) > 3 (NR2F6; 10% FBS, 10 uM): 1.4
F4, Firefly/Renilla for S/B(F4) > 3 (NR2F6; 10% FBS, 40 uM): 1.3
Firefly, F4/pGL4 for S/B(F4) > 3 (NR2F6; 10% FBS, 40 uM): 2.9
Firefly, F4, 1% FBS, cmpd/DMSO (mean) (NR2F6; 1% FBS, 0.5 uM): 1.5
Firefly, F4, 1% FBS, cmpd/DMSO (mean) (NR2F6; 1% FBS, 2 uM): 1.2
Firefly, F4, 1% FBS, cmpd/DMSO (mean) (NR2F6; 1% FBS, 10 uM): 3.9
Firefly, F4, 1% FBS, cmpd/DMSO (mean) (NR2F6; 1% FBS, 40 uM): 0.1
Firefly, F4, 10% FBS, cmpd/DMSO (mean) (NR2F6; 10% FBS, 0.5 uM): 1.2
Firefly, F4, 10% FBS, cmpd/DMSO (mean) (NR2F6; 10% FBS, 2 uM): 1.4
Firefly, F4, 10% FBS, cmpd/DMSO (mean) (NR2F6; 10% FBS, 10 uM): 3.3
Firefly, F4, 10% FBS, cmpd/DMSO (mean) (NR2F6; 10% FBS, 40 uM): 3.4
Firefly LBD, cmpd/DMSO (mean) (NR2F6 LBD; 0.5 uM): 1.0
Firefly LBD, cmpd/DMSO (mean) (NR2F6 LBD; 2 uM): 1.5
Firefly LBD, cmpd/DMSO (mean) (NR2F6 LBD; 10 uM): 3.6
Firefly LBD, cmpd/DMSO (mean) (NR2F6 LBD; 40 uM): 0.7

O=S1(=O)C[C@H](N2CCCCC2)[C@@H](S(=O)(=O)c2ccc(Cl)cc2)C1 [Compound D123]
fold induction at 0.5 µM (Renilla; [1]): 1.1
fold induction at 2 µM (Renilla; [1]): 1.4
fold induction at 10 µM (Renilla; [1]): 1.9
fold induction at 40 µM (Renilla; [1]): 0.3
fold induction at 0.5 µM (Renilla; [2]): 1.1
fold induction at 2 µM (Renilla; [2]): 1.4
fold induction at 10 µM (Renilla; [2]): 1.6
fold induction at 40 µM (Renilla; [2]): 0.1
fold induction at 0.5 µM (Renilla; [3]): 0.9
fold induction at 2 µM (Renilla; [3]): 1.1
fold induction at 10 µM (Renilla; [3]): 1.9
fold induction at 40 µM (Renilla; [3]): 0.2
fold induction at 0.5 µM (HEK293 pGL4; [4]): 1.2
fold induction at 2 µM (HEK293 pGL4; [5]): 1.7
fold induction at 10 µM (HEK293 pGL4; [6]): 3.4
fold induction at 40 µM (HEK293 pGL4; [7]): 0.6
fold induction at 0.5 µM (HEK293 pGL4; [8]): 1.1
fold induction at 2 µM (HEK293 pGL4; [9]): 1.8
fold induction at 10 µM (HEK293 pGL4; [10]): 2.7
fold induction at 40 µM (HEK293 pGL4; [11]): 0.8
fold induction at 0.5 µM (HEK293 pGL4; [12]): 1.2
fold induction at 2 µM (HEK293 pGL4; [13]): 1.6
fold induction at 10 µM (HEK293 pGL4; [14]): 3
fold induction at 40 µM (HEK293 pGL4; [15]): 0.8
Firefly F4, cmpd/DMSO (mean) (NR2F6; 0.5 uM): 1.8
Firefly F4, cmpd/DMSO (mean) (NR2F6; 2 uM): 2.5
Firefly F4, cmpd/DMSO (mean) (NR2F6; 10 uM): 7.1
Firefly F4, cmpd/DMSO (mean) (NR2F6; 40 uM): 0.7
F4, Firefly/Renilla for S/B(F4) > 3 (NR2F6; 1% FBS, 10 uM): 2.7
Firefly, F4/pGL4 for S/B(F4) > 3 (NR2F6; 1% FBS, 10 uM): 1.6
F4, Firefly/Renilla for S/B(F4) > 3 (NR2F6; 10% FBS, 10 uM): 4.0
Firefly, F4/pGL4 for S/B(F4) > 3 (NR2F6; 10% FBS, 10 uM): 2.5
Firefly, F4, 1% FBS, cmpd/DMSO (mean) (NR2F6; 1% FBS, 0.5 uM): 1.3
Firefly, F4, 1% FBS, cmpd/DMSO (mean) (NR2F6; 1% FBS, 2 uM): 2.1
Firefly, F4, 1% FBS, cmpd/DMSO (mean) (NR2F6; 1% FBS, 10 uM): 4.4
Firefly, F4, 1% FBS, cmpd/DMSO (mean) (NR2F6; 1% FBS, 40 uM): 0.2
Firefly, F4, 10% FBS, cmpd/DMSO (mean) (NR2F6; 10% FBS, 0.5 uM): 1.1
Firefly, F4, 10% FBS, cmpd/DMSO (mean) (NR2F6; 10% FBS, 2 uM): 2.0
Firefly, F4, 10% FBS, cmpd/DMSO (mean) (NR2F6; 10% FBS, 10 uM): 7.5
Firefly, F4, 10% FBS, cmpd/DMSO (mean) (NR2F6; 10% FBS, 40 uM): 0.8
Activity, cmpd/DMSO (NR2F6; Table 31): 6.1
Firefly LBD, cmpd/DMSO (mean) (NR2F6 LBD; 0.5 uM): 1.0
Firefly LBD, cmpd/DMSO (mean) (NR2F6 LBD; 2 uM): 1.9
Firefly LBD, cmpd/DMSO (mean) (NR2F6 LBD; 10 uM): 4.9
Firefly LBD, cmpd/DMSO (mean) (NR2F6 LBD; 40 uM): 0.4
